Data as given in PMC10227015, “From a drug repositioning to a structure-based drug design approach to tackle acute lymphoblastic leukemia” (Nature Communications, 2023).
Read-outs that look alike come from different tables or passages of the source.

Columns and labels:
dCK-C3S-S74E [1] = test: Isothermal titration calorimetry (ITC); assay type: binding, human; conditions: 25 °C
From the text: BL21 pRIL Escherichia coli cells were transformed with dCK-plasmids (dCK-C4S-S74E (for crystallization assays) and dCK-C3S-S74E (for TSA, enzymatic and ITC assays)). Protein dCK-C4S-S74E used for crystallization assays contained four mutations in order to generate better quality crystals (four solvent-exposed cysteine residues were mutated to serine; C9S, C45S, C59S and C146S). Protein dCK-C3S-S74E used for other assays contained only three mutated cysteines. The S74E mutation mimics the phosphorylated state of this serine, which favors the open conformation of the enzyme, making it competent for nucleoside binding[45] to evaluate the binding affinity with compounds. E. coli cells were grown in LB media containing 100 μg/ml ampicillin and 34 μg/ml chloramphenicol at 18 °C for 20 h after induction with 1 mM IPTG.
For binding assays (TSA, ITC and crystallography) cells were re-suspended in 50 mM TRIS, pH 8, 500 mM NaCl, 30 mM imidazole and 10% glycerol buffer and one EDTA free anti-protease tablet was added (Roche). After sonication and centrifugation (30,000 × g), the supernatant was loaded on a 5 ml HisTrap FF column (GE healthcare) pre-equilibrated with resuspension buffer. Protein was then eluted by resuspension buffer containing 500 mM imidazole. Protein eluted fractions were mixed and concentrated. […]

CCRF-CEM cell line [2] = test: dCK cellular assay: CCRF-CEM proliferation in the presence of dT and dC; assay type: cell-based, human; conditions: Homo sapiens, CCRF-CEM
In short: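 Two conditions in T-ALL CCRF-CEM cells: compound only, and compound with thymidine blocking de novo synthesis and deoxycytidine rescuing via dCK. Metabolic dye fluorescence (560/590 nm) gives % proliferation vs DMSO; IC50s, mean ± SD of at least three triplicate runs.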

CCRF-CEM cell line [3] = test: CCRF-CEM proliferation, compound alone (nonspecific toxicity); assay type: cell-based, human; conditions: compound 10 µM alone, 72 h
Protocol: The dCK cellular assay was set up to assess the ability to inhibit dCK activity in a cellular model. The model was developed with a T-cell acute lymphoblastic leukemia cell line (CCRF-CEM), because of its high dependence on the SP, thus on dCK activity. Cellular assays were performed to assess the inhibition of cell proliferation under two conditions: (i) in the presence of the compound alone to determine the nonspecific effect on cells, independent of dCK (nonspecific toxicity) and (ii) in the presence of an inhibitor of the DNP to determine the ability of compounds to inhibit dCK and decrease tumor proliferation (activity on dCK). The inhibitor of the DNP chosen for the experiments was thymidine (dT), a physiological inhibitor of ribonucleotide reductase which arrests cell proliferation in phase S. The dTTP produced via thymidine kinase from dT acts as a RNR inhibitor by an allosteric regulation of the R1 subunit. The addition of the nucleoside deoxycytidine (dC) in the medium allows the rescue of cell proliferation by passing only through the salvage pathway, mediated by dCK. dC needs to be added exogenously to mimic physiological concentrations because it is not present in the cell culture medium, on the contrary to mouse model, in which it is naturally present in the serum. Therefore, cell proliferation under these conditions (+dT +dC) is dCK dependent and it is possible to determine the IC50 of dCK inhibitors on the inhibition of cell proliferation. Results are expressed as % cell proliferation relative to the control with DMSO.
The amount of reduced dye formed by metabolically active cells was quantified by its fluorescence measured at 560 nm (excitation) and 590 nm (emission) in a microplate reader (CLARIOstar, BMG Labtech). A blank well without cells was used as a background control. Each experiment was performed at least three times (with technical triplicates) and data are presented as the mean ± SD.

dCK-C3S-S74E [4] = test: Thermal shift assay (TSA)
From the text: BL21 pRIL Escherichia coli cells were transformed with dCK-plasmids (dCK-C4S-S74E (for crystallization assays) and dCK-C3S-S74E (for TSA, enzymatic and ITC assays)). […] Protein dCK-C3S-S74E used for other assays contained only three mutated cysteines. The S74E mutation mimics the phosphorylated state of this serine, which favors the open conformation of the enzyme, making it competent for nucleoside binding[45] to evaluate the binding affinity with compounds.
For binding assays (TSA, ITC and crystallography) cells were re-suspended in 50 mM TRIS, pH 8, 500 mM NaCl, 30 mM imidazole and 10% glycerol buffer and one EDTA free anti-protease tablet was added (Roche). After sonication and centrifugation (30,000 × g), the supernatant was loaded on a 5 ml HisTrap FF column (GE healthcare) pre-equilibrated with resuspension buffer. Protein was then eluted by resuspension buffer containing 500 mM imidazole. Protein eluted fractions were mixed and concentrated. Protein was further purified by size exclusion chromatography (superdex 200 16/600, GE healthcare) in 20 mM HEPES, pH 7.5, and 200 mM NaCl before concentration to 30 mg/ml and storage at −80 °C.
Thermal shift assay (TSA) experiments were performed in 384-well PCR white plates in the assay buffer containing 20 mM HEPES, pH 7.5 and 200 mM NaCl. […] Plates were centrifuged at 200 × g for 2 min at 4 °C. […] Raw fluorescence data were treated, and the melting temperatures (Tm) were calculated using CFX Manager 3.1 software (Bio-Rad). ΔTm represents the difference in Tm between the protein in the presence of compound and the protein alone (both at 2% DMSO). Each experiment was performed at least twice (with technical triplicates) and data are presented as the mean ± SD.

dCK-C3S-S74E, sequence (P27707 whole entry S74E, form open): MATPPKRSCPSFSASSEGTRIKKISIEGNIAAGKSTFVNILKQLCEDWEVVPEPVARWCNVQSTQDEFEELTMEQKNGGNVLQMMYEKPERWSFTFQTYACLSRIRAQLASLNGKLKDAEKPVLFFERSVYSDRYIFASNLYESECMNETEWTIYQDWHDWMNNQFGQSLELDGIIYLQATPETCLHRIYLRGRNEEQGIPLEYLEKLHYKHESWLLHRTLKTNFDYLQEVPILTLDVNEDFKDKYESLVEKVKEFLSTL

Cc1ccc(NC(=O)c2ccc(CN3CCN(C)CC3)cc2)cc1Nc1nc(-c2nccc(N)n2)cs1 [dCKi1]
Kd (dCK-C3S-S74E [1]): 0.128 µM | activity at 0.039 µM (CCRF-CEM cell line [2]; 39 nM, dT 200 µM + dC 1 µM, read-out: Cell proliferation of the CCRF-CEM cell line Mean (% prolif)): 94.3% | activity at 0.078 µM (CCRF-CEM cell line [2]; 78 nM, dT 200 µM + dC 1 µM, read-out: Cell proliferation of the CCRF-CEM cell line Mean (% prolif)): 88.7% | activity at 0.156 µM (CCRF-CEM cell line [2]; 156 nM, dT 200 µM + dC 1 µM, read-out: Cell proliferation of the CCRF-CEM cell line Mean (% prolif)): 91% | activity at 0.312 µM (CCRF-CEM cell line [2]; 312 nM, dT 200 µM + dC 1 µM, read-out: Cell proliferation of the CCRF-CEM cell line Mean (% prolif)): 94.4% | activity at 0.625 µM (CCRF-CEM cell line [2]; 625 nM, dT 200 µM + dC 1 µM, read-out: Cell proliferation of the CCRF-CEM cell line Mean (% prolif)): 93.2% | activity at 1.25 µM (CCRF-CEM cell line [2]; 1250 nM, dT 200 µM + dC 1 µM, read-out: Cell proliferation of the CCRF-CEM cell line Mean (% prolif)): 98.2% | activity at 2.5 µM (CCRF-CEM cell line [2]; 2500 nM, dT 200 µM + dC 1 µM, read-out: Cell proliferation of the CCRF-CEM cell line Mean (% prolif)): 91.8% | activity at 5 µM (CCRF-CEM cell line [2]; 5000 nM, dT 200 µM + dC 1 µM, read-out: Cell proliferation of the CCRF-CEM cell line Mean (% prolif)): 67.7% | activity at 10 µM (CCRF-CEM cell line [2]; 10000 nM, dT 200 µM + dC 1 µM, read-out: Cell proliferation of the CCRF-CEM cell line Mean (% prolif)): 31% | activity at 20 µM (CCRF-CEM cell line [2]; 20000 nM, dT 200 µM + dC 1 µM, read-out: Cell proliferation of the CCRF-CEM cell line Mean (% prolif)): 8.1% | activity at 10 µM (CCRF-CEM cell line [2]; compound 10 µM + dT 111 µM + dC 1 µM, 72 h, read-out: Cell proliferation of the CCRF-CEM cell line Mean (% prolif)): 47% | IC50 (CCRF-CEM cell line [2]; read-out: dCK CELLULAR ASSAY IC50 (nM), 200 µM dT and 1 µM dC, read-out: dCK […] ASSAY IC50): 6950 ± 2530 nM | IC50 (CCRF-CEM cell line [2]; dT 200 µM + dC 1 µM, 72 h, read-out: IC50 cell proliferation): 6900 nM | Cell proliferation of the CCRF-CEM cell line Mean (% prolif) (CCRF-CEM cell line [3]): 76.3% | ΔTm, dCK thermal stabilization (TSA) (dCK-C3S-S74E [4]; 5 μM protein, 50 μM compound): 14.3 °C | Thermal Shift Assay Mean (ΔTm (º)) (dCK-C3S-S74E [4]; Figure 1b): 14.3 º | THERMAL SHIFT ASSAY +Tm (°) (dCK-C3S-S74E [4]; mean ± SD): 14.3 ± 0.4 °
